Measured values from patent US20060148832A1, “Use of 2-amino-2h-quinazoline derivatives for producing therapeutic agents” (priority 2003, published 2006).

Key:
blood platelets = conditions: mentioned in U.S. Pat. No. 4,146,718; cited from earlier work
[1] = Cyclization of the anagrelide prodrug to anagrelide in aqueous medium as a function of pH; format: physicochemical; conditions: 37° C., after one hour
Source text: The 2-amino-2H-quinazoline derivatives according to the invention can be cyclized to the anagrelide in aqueous medium as a function of the pH without addition of other adjuvants or boiling under reflux for hours. […] A cyclization of the compound with the general chemical formula I in strongly acidic pH range, as prevails, for example, in the stomach of mammals, has only been detected up to a certain small percentage.
(§1) For the cyclization, 0.3 mmol of the anagrelide prodrug methyl-(2-amino-5,6-dichloro-2H-quinazolin-3-yl) acetate hydrochloride (analysis: UV-Maxima 217,262 nm; MW 324.59; mp>250° C.), corresponding to the general formula I, wherein R1 indicates an alkyl group with one carbon atom, R2 and R3 each indicate a hydrogen atom, and R4 and R5 each indicate a chlorine atom, was added to 10 ml of an aqueous hydrochloric acid solution (0.1 M HCl), at 37° C. with slight stirring. After one hour, 9.6% of the prodrug was converted to anagrelide. [drawing 2]
as §1, with “(MW 324.59)” for “(analysis: UV-Maxima 217,262 nm; MW 324.59; mp>250° C.),”, “pH-neutral water,” for “an aqueous hydrochloric acid solution (0.1 M HCl),”, “58%” for “9.6%”, “anagrelide.” for “anagrelide. [drawing 2]”
as §1, with “hydrochloride” for “hydrochloride (analysis: UV-Maxima 217,262 nm; MW 324.59; mp>250° C.),”, “basic” for “hydrochloric acid”, “NaOH),” for “HCl),”, “100%” for “9.6%”, “anagrelide.” for “anagrelide. [drawing 2]”
(§2) For the cyclization, 0.3 mmol of the anagrelide prodrug ethyl-(2-amino-5,6-dichloro-2H-quinazolin-3-yl) acetate hydrochloride hemihydrate, corresponding to the general formula I, wherein R1 indicates an alkyl group with two carbon atoms, R2 and R3 each indicate a hydrogen atom, and R4 and R5 each indicate a chlorine atom, was added to 10 ml of an aqueous basic solution (15 g of sodium hydrogen carbonate in 1 liter of water), at 37° C. with slight stirring. This basic solution was selected because it corresponds to a common test system for simulation of the milieu of the intestinal juice (pH between 8 and 10). After one hour, 100% of the prodrug was converted to anagrelide.
as §2, with “methyl-(2-amino-5,6-dichloro-2H-quinazolin-3-yl)” for “ethyl-(2-amino-5,6-dichloro-2H-quinazolin-3-yl)”, “one” for “two”, “atom,” for “atoms,”
as §2, with “hydrobromide (analysis: UV maxima 204, 216, 262 nm; mp 291-293,” for “hydrochloride hemihydrate,”

[2] = anagrelide base; cited from earlier work
thrombocytes = conditions: dose of 3 mg/day, after one week; cited from earlier work
[3] = 0.3 mmol in 10 ml aqueous basic solution (15 g sodium hydrogen carbonate in 1 liter water; simulated intestinal juice, pH between 8 and 10)

**Q.** Which results are given for Br.CCOC(=O)CN1Cc2c(ccc(Cl)c2Cl)N=C1N [Ethyl-(2-amino-5,6-dichloro-2H-quinazolin-3-yl) acetate hydrobromide]?
**A.** effect on blood platelets (blood platelets): anti-aggregative effect on blood platelets; prodrug converted to anagrelide [1, 3]: 100%

**Q.** What does the source list for COC(=O)CN1C=c2c(Cl)c(Cl)ccc2=NC1N.Cl (stereo not drawn) [Methyl-(2-amino-5,6-dichloro-2H-quinazolin-3-yl) acetate hydrochloride]?
**A.** prodrug converted to anagrelide ([1]; 0.3 mmol in 10 ml aqueous basic solution (0.1 M NaOH)): 100%; prodrug converted to anagrelide ([1]; 0.3 mmol in 10 ml aqueous hydrochloric acid solution (0.1 M HCl)): 9.6%; prodrug converted to anagrelide ([1]; 0.3 mmol in 10 ml pH-neutral water): 58%

**Q.** For “Methyl-(2-amino-5,6-dichloro-2H-quinazolin-3-yl) acetate hydrochloride hemihydrate”, which “prodrug converted to anagrelide” value [1, 3] is on record?
**A.** 100%

**Q.** With “Ethyl-(2-amino-5,6-dichloro-2H-quinazolin-3-yl) acetate hydrochloride hemihydrate” as the compound, how does the “prodrug converted to anagrelide” value [1, 3] read?
**A.** 100%

**Q.** With O=C1CN2Cc3c(ccc(Cl)c3Cl)N=C2N1 [anagrelide, 6,7-dichloro-1,5-dihydroimidazo-[2,1-b]-quinazolin-2-[3H]-one] as the compound, how does the solubility in water [2] read?
**A.** difficultly soluble in water

**Q.** And the decrease in thrombocytes (thrombocytes)?
**A.** approximately 50%
